Legend:
[1] = target: High affinity 3',5'-cyclic-AMP phosphodiesterase 7A (Homo sapiens, UniProt Q13946); experiment: Biochemical assay (PDE7A)
[2] = target: AP2-associated protein kinase 1 (Homo sapiens) (UniProt Q2M2I8); conditions: Compound concentration 100.0 nM
[3] = system: Tyrosine-protein kinase ABL1 (Homo sapiens), P00519 [F317L]; conditions: Compound concentration 100.0 nM
[4] = system: Tyrosine-protein kinase ABL1 (Homo sapiens), P00519 [H396P]; conditions: Compound concentration 100.0 nM
[5] = target: Tyrosine-protein kinase ABL1 (Homo sapiens) (UniProt P00519); conditions: Compound concentration 100.0 nM
[6] = target: Activin receptor type-1-like (Homo sapiens) (UniProt P37023); conditions: Compound concentration 100.0 nM
[7] = target: Protein-tyrosine kinase 6 (Homo sapiens) (UniProt Q13882); conditions: Compound concentration 100.0 nM
Sequence of Protein-tyrosine kinase 6 (Homo sapiens) (Q13882 whole entry, looked up): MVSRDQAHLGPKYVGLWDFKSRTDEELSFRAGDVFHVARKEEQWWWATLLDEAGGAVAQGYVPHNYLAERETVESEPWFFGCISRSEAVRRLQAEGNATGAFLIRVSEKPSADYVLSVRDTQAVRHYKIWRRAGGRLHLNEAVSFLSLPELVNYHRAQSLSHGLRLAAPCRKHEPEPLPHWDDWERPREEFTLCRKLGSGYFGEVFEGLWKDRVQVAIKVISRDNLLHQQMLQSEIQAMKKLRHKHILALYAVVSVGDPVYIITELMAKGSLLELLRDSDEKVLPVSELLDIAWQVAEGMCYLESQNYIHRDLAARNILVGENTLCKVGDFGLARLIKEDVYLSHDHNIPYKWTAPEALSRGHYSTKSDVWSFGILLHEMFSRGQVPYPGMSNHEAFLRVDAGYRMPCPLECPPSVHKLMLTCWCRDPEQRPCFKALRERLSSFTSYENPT

[8] = target: Peripheral plasma membrane protein CASK (Homo sapiens) (UniProt O14936); conditions: Compound concentration 100.0 nM
[9] = target: Dual specificity protein kinase CLK1 (Homo sapiens) (UniProt P49759); conditions: Compound concentration 100.0 nM
[10] = target: Casein kinase I isoform delta (Homo sapiens) (UniProt P48730); conditions: Compound concentration 100.0 nM
Sequence of Casein kinase I isoform delta (Homo sapiens) (P48730 whole entry, looked up, canonical isoform): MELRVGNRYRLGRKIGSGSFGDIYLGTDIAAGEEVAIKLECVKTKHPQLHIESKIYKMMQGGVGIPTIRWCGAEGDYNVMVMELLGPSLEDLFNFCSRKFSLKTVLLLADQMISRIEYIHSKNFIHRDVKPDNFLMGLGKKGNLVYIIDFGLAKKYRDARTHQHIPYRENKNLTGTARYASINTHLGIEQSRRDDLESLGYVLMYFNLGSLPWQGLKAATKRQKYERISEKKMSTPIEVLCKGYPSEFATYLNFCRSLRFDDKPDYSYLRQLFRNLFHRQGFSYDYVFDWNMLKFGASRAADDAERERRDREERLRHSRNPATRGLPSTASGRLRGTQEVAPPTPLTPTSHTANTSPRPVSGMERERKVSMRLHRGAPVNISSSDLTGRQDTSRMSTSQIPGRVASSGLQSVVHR

[11] = target: Megakaryocyte-associated tyrosine-protein kinase (Homo sapiens) (UniProt P42679); conditions: Compound concentration 100.0 nM
Sequence of Megakaryocyte-associated tyrosine-protein kinase (Homo sapiens) (P42679 whole entry): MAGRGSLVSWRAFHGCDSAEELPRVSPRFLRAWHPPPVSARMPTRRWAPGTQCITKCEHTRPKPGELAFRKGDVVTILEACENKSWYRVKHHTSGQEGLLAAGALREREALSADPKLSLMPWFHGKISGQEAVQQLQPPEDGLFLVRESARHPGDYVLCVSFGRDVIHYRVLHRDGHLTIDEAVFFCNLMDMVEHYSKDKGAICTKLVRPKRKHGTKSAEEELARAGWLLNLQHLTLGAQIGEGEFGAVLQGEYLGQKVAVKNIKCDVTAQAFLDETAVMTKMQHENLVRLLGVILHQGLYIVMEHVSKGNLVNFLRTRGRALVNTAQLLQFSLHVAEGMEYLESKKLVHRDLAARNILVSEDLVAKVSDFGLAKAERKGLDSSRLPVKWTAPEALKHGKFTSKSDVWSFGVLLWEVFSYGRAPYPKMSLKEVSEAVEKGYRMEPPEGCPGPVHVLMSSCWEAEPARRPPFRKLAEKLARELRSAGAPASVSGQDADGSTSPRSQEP

[12] = target: Dual specificity tyrosine-phosphorylation-regulated kinase 1A (Homo sapiens) (UniProt Q13627); conditions: Compound concentration 100.0 nM
[13] = system: Epidermal growth factor receptor (Homo sapiens), P00533 [L858R]; conditions: Compound concentration 100.0 nM
[14] = target: Ephrin type-B receptor 4 (Homo sapiens) (UniProt P54760); conditions: Compound concentration 100.0 nM
[15] = target: Mitogen-activated protein kinase 4 (Homo sapiens) (UniProt P31152); conditions: Compound concentration 100.0 nM
[16] = system: Fibroblast growth factor receptor 3 (Homo sapiens), P22607 [G697C]; conditions: Compound concentration 100.0 nM
[17] = target: Homeodomain-interacting protein kinase 4 (Homo sapiens) (UniProt Q8NE63); conditions: Compound concentration 100.0 nM
[18] = target: Hormonally up-regulated neu tumor-associated kinase (Homo sapiens) (UniProt P57058); conditions: Compound concentration 100.0 nM
[19] = target: Serine/threonine-protein kinase STK11 (Homo sapiens) (UniProt Q15831); conditions: Compound concentration 100.0 nM
Sequence of Serine/threonine-protein kinase STK11 (Homo sapiens) (Q15831 whole entry): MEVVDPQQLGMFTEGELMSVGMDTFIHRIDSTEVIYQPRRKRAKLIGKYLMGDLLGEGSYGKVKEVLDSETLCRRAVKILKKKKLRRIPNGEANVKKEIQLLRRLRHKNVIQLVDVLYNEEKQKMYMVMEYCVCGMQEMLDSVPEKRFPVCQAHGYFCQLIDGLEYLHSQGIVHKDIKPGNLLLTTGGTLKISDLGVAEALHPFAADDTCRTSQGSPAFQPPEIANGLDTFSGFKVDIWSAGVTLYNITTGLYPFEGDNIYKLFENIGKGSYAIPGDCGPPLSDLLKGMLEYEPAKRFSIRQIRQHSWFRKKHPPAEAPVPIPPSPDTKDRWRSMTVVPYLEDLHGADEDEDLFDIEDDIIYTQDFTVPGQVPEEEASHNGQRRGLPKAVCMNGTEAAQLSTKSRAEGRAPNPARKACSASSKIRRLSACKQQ

[20] = target: MAP/microtubule affinity-regulating kinase 4 (Homo sapiens) (UniProt Q96L34); conditions: Compound concentration 100.0 nM
[21] = target: Dual specificity mitogen-activated protein kinase kinase 2 (Homo sapiens) (UniProt P36507); conditions: Compound concentration 100.0 nM
[22] = target: Muscle, skeletal receptor tyrosine-protein kinase (Homo sapiens) (UniProt O15146); conditions: Compound concentration 100.0 nM
[23] = target: Myosin light chain kinase, smooth muscle (Homo sapiens) (UniProt Q15746); conditions: Compound concentration 100.0 nM
[24] = target: cAMP-dependent protein kinase catalytic subunit beta (Homo sapiens) (UniProt P22694); conditions: Compound concentration 100.0 nM
[25] = target: cAMP-dependent protein kinase catalytic subunit PRKX (Homo sapiens) (UniProt P51817); conditions: Compound concentration 100.0 nM
Sequence of cAMP-dependent protein kinase catalytic subunit PRKX (Homo sapiens) (P51817 whole entry): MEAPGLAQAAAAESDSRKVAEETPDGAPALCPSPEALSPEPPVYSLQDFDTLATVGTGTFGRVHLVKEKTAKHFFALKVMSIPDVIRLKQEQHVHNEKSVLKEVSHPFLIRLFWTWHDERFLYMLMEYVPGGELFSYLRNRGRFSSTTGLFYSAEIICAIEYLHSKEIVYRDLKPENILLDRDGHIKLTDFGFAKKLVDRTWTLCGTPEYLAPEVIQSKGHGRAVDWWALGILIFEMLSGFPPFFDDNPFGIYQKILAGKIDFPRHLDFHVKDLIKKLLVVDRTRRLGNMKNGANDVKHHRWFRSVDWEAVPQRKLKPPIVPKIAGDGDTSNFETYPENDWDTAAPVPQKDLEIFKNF

[26] = target: Serine/threonine-protein kinase PRP4 homolog (Homo sapiens) (UniProt Q13523); conditions: Compound concentration 100.0 nM
[27] = system: Proto-oncogene tyrosine-protein kinase receptor Ret (Homo sapiens), P07949 [M918T]; conditions: Compound concentration 100.0 nM
[28] = target: Serine/threonine-protein kinase RIO1 (Homo sapiens) (UniProt Q9BRS2); conditions: Compound concentration 100.0 nM
[29] = target: Ribosomal protein S6 kinase alpha-1 (Homo sapiens) (UniProt Q15418); conditions: Compound concentration 100.0 nM
[30] = target: Ribosomal protein S6 kinase alpha-3 (Homo sapiens) (UniProt P51812); conditions: Compound concentration 100.0 nM
[31] = target: Ribosomal protein S6 kinase alpha-2 (Homo sapiens) (UniProt Q15349); conditions: Compound concentration 100.0 nM
[32] = target: Serine/threonine-protein kinase Sgk1 (Homo sapiens) (UniProt O00141); conditions: Compound concentration 100.0 nM
Sequence of Serine/threonine-protein kinase Sgk1 (Homo sapiens) (O00141 whole entry): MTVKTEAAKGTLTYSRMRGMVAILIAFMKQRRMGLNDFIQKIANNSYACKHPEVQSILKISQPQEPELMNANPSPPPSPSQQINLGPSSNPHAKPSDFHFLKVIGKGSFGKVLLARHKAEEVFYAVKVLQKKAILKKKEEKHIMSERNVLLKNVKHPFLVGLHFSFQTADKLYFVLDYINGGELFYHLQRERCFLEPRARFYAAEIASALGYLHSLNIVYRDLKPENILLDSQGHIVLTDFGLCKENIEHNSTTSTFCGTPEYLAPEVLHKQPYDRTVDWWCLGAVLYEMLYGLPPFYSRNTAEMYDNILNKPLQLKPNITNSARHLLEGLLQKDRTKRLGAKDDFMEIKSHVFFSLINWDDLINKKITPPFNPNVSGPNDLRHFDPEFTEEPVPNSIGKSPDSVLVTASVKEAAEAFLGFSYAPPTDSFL

[33] = target: Tyrosine-protein kinase SYK (Homo sapiens) (UniProt P43405); conditions: Compound concentration 100.0 nM
[34] = target: Angiopoietin-1 receptor (Homo sapiens) (UniProt Q02763); conditions: Compound concentration 100.0 nM
[35] = target: Serine/threonine-protein kinase VRK2 (Homo sapiens) (UniProt Q86Y07); conditions: Compound concentration 100.0 nM
Sequence of Serine/threonine-protein kinase VRK2 (Homo sapiens) (Q86Y07 whole entry): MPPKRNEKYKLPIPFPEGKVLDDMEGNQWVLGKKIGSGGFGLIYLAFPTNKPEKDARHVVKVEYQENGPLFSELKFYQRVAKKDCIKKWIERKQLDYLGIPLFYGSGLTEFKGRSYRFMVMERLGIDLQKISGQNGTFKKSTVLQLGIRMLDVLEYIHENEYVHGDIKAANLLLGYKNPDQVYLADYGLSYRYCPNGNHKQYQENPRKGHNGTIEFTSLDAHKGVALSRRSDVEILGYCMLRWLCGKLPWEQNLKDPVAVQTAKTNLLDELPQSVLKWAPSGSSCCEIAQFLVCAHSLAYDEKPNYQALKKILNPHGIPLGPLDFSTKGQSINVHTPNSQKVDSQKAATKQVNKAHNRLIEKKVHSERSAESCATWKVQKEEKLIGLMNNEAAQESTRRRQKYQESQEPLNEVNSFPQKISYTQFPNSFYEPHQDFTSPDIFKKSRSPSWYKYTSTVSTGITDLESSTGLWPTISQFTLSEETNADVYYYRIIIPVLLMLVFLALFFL

[36] = target: Mitogen-activated protein kinase kinase kinase 19 (Homo sapiens) (UniProt Q56UN5); conditions: Compound concentration 100.0 nM
[37] = target: T1, 5-hydroxytryptamine receptor 2C (Homo sapiens) (UniProt P28335); conditions: Compound concentration 10.0 uM
T1 sequence (whole entry): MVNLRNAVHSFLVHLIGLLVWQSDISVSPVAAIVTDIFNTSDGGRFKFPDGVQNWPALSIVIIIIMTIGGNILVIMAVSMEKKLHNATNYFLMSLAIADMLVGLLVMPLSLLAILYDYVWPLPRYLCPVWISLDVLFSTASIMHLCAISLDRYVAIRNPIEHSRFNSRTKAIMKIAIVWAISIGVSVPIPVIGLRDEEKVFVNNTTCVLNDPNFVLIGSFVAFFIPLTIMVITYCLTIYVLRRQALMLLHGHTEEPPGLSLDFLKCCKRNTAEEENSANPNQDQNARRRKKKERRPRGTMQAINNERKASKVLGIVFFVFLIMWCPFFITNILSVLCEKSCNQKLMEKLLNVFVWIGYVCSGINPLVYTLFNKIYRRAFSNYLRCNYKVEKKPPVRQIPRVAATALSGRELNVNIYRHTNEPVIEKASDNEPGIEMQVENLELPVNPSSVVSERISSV

[38] = target: D(3) dopamine receptor (Homo sapiens) (UniProt P35462); conditions: Compound concentration 10.0 uM
Sequence of D(3) dopamine receptor (Homo sapiens) (P35462 whole entry): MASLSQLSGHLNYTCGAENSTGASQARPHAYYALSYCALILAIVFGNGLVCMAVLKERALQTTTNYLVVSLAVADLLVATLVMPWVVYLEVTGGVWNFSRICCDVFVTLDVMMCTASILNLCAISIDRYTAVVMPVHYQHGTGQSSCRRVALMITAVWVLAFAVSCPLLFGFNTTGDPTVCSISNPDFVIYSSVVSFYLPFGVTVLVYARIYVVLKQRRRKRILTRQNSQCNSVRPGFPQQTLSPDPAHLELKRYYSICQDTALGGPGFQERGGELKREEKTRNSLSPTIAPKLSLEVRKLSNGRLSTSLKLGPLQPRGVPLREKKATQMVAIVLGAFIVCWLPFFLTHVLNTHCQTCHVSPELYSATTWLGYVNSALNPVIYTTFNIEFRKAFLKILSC

[39] = target: Histamine H2 receptor (Homo sapiens) (UniProt P25021); conditions: Compound concentration 10.0 uM

Sequence of High affinity 3',5'-cyclic-AMP phosphodiesterase 7A (Q13946 whole entry): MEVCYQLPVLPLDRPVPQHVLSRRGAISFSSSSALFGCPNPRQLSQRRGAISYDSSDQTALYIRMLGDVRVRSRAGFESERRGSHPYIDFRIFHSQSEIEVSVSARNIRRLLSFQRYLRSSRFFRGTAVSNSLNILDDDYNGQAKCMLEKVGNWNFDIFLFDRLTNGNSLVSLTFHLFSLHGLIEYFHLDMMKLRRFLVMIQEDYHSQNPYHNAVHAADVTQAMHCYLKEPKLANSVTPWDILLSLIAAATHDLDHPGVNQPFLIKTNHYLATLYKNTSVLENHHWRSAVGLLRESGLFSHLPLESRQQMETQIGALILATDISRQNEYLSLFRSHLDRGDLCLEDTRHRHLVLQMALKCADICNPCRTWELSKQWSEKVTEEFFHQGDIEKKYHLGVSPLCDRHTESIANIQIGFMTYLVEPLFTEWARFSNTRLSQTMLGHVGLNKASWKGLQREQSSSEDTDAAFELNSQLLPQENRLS
Sequence of AP2-associated protein kinase 1 (Homo sapiens) (Q2M2I8 whole entry, looked up): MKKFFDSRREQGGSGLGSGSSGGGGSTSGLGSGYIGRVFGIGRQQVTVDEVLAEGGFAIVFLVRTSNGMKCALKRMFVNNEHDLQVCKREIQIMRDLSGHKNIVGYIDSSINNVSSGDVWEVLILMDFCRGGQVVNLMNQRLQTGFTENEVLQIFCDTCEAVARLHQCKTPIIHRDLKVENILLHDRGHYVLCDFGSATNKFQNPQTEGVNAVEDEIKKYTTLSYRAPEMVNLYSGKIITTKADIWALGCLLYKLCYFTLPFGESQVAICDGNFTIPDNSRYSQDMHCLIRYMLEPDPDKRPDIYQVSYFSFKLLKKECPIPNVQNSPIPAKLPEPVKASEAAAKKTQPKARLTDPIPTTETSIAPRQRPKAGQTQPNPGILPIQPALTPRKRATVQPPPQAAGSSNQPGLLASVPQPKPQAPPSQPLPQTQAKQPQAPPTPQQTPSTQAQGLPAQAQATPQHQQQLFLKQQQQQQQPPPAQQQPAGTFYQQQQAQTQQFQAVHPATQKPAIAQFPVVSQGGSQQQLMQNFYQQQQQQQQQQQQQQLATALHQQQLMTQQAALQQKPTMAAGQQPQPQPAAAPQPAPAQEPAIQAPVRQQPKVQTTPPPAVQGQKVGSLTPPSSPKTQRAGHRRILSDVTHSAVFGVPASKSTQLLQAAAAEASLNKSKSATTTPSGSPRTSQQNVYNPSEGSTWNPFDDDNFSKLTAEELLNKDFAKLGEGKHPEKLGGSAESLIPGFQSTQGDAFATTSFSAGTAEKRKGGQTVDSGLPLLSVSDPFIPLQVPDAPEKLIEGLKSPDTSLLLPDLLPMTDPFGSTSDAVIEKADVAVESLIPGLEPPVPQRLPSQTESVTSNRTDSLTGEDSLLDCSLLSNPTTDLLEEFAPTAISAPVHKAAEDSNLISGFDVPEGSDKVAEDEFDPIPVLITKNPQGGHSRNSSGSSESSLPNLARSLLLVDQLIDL

For `COCCOc1nc(-c2ccc(Cl)nc2)nc2c1CN(C(=O)c1ncn3ccccc13)CC2` [THPP-1], the Ki [1] was 11.2 µM (not active), the residual activity [2] was 100% and the residual activity [3] was 100%. It also gave a residual activity [4] of 70%, a residual activity [5] of 60% and a residual activity [6] of 100%. The residual activity [7] was 100%, the residual activity [8] was 95% and the residual activity [9] was 100%. It also gave a residual activity [10] of 84%, a residual activity [11] of 100% and a residual activity [12] of 78%. The residual activity [13] was 83%, the residual activity [14] was 100% and the residual activity [15] was 100%. For the same compound, the residual activity [16] was 100%, the residual activity [17] was 83% and the residual activity [18] was 78%. For the same compound, the residual activity [19] was 100%, the residual activity [20] was 100% and the residual activity [21] was 100%. For the same compound, the residual activity [22] was 100%, the residual activity [23] was 70% and the residual activity [24] was 73%. The residual activity [25] was 100%, the residual activity [26] was 100% and the residual activity [27] was 90%. For the same compound, the residual activity [28] was 93%, the residual activity [29] was 100% and the residual activity [30] was 82%. The residual activity [31] was 100%, the residual activity [32] was 91% and the residual activity [33] was 100%. It also gave a residual activity [34] of 100%, a residual activity [35] of 91% and a residual activity [36] of 100%. The inhibition [37] was 13.3%, the inhibition [38] was -6.15% and the inhibition [39] was -0.24%.
For `CC(C)CC(=O)N1CCc2nc(-c3ccc(Br)cc3)nc(N(C)Cc3ccccc3)c2C1` [THPP-1-NC], the Ki [1] was > 25.3 µM (not active), the residual activity [2] was 100% and the residual activity [3] was 100%. It also gave a residual activity [4] of 68%, a residual activity [5] of 58% and a residual activity [6] of 99%. It also gave a residual activity [7] of 100%, a residual activity [8] of 81% and a residual activity [9] of 100%. For the same compound, the residual activity [10] was 83%, the residual activity [11] was 100% and the residual activity [12] was 78%. For the same compound, the residual activity [13] was 94%, the residual activity [14] was 100% and the residual activity [15] was 100%. For the same compound, the residual activity [16] was 100%, the residual activity [17] was 61% and the residual activity [18] was 86%. It also gave a residual activity [19] of 100%, a residual activity [20] of 100% and a residual activity [21] of 100%. It also gave a residual activity [22] of 100%, a residual activity [23] of 86% and a residual activity [24] of 82%. It also gave a residual activity [25] of 100%, a residual activity [26] of 100% and a residual activity [27] of 100%. For the same compound, the residual activity [28] was 98%, the residual activity [29] was 100% and the residual activity [30] was 67%. The residual activity [31] was 100%, the residual activity [32] was 99% and the residual activity [33] was 100%. For the same compound, the residual activity [34] was 100%, the residual activity [35] was 77% and the residual activity [36] was 100%. The inhibition [37] was -6.28%, the inhibition [38] was 5.44% and the inhibition [39] was 3.39%.
